Experimental findings from PMC8406801, “Naringenin Inhibits Platelet Activation and Arterial Thrombosis Through Inhibition of Phosphoinositide 3-Kinase and Cyclic Nucleotide Signaling” (Frontiers in Pharmacology, 2021) are described below.

“And” between values parts separate entries of the source, which are not always exact repeats. Equal values may be shown once. Read-outs that look alike come from different tables or passages of the source.

Experiment [1] concerns washed rat platelets. As to the kind of experiment: Thrombin (0.2 U/mL)-induced aggregation of washed platelets. The class given is cell-based. The note with it: for Aggregation (%) / Aggregation % of control: washed platelets, single replicates; for Aggregation (%): raw data. How it is done: Washed rat platelets were prepared as described previously ([Gao et al., 2011]) with a minor modification. Briefly, rat blood was drawn from the abdominal aorta into the siliconized vacutainers containing 1:9 (v/v) 3.8% sodium citrate, supplemented with 100 ng/ml prostaglandin E1 (PGE1) and centrifuged at 300 × g for 6 min at room temperature. Platelet-rich plasma (PRP) was obtained, and after the addition of 100 ng/ml PGE1, platelets were pelleted at 900 × g for 10 min. Platelets were washed once in Tyrode’s buffer (12 mM NaHCO3, 138 mM NaCl, 5.5 mM glucose, 2.9 mM KCl, 2 mM MgCl2, 0.42 mM NaH2PO4, 10 mM HEPES, pH 7.4) containing 100 ng/ml PGE1, and finally resuspended in Tyrode’s buffer containing 0.02 U/mL apyrase to a final concentration of 4×10^8 cells/mL. Washed platelets were preincubated with vehicle (0.4% dimethyl sulfoxide) or various concentrations of naringenin in the presence of 2 mM CaCl2 for 5 min at 37°C, and then further stimulated by ADP (10 μM), thrombin (0.2 U/mL) or collagen (2 μg/ml). The maximum platelet aggregation rate was detected within 5 min with continuous stirring.
FIGURE 1 Effects of naringenin and naringin on platelet aggregation. Chemical structure of naringin (A) and naringenin (B). The effects of naringin (C) or naringenin (D) on PRP were measured following stimulation with 10 μmol/L ADP. Rat washed platelet aggregation performed with or without different concentrations of naringin (E) or naringenin (F) was recorded after stimulation with 10 μmol/L ADP. Similarly, Washed platelet aggregation performed with vehicle or various concentrations of naringenin was recorded after stimulation with 0.2 U/mL thrombin (G) or 2 μg/ml collagen (H). WP represents washed platelets. Data are expressed as means ± SD (n = 6), the level of aggregation obtained at 5 min with vehicle-treated samples (0 μM) was taken as 100%. *p < 0.05, **p < 0.01, ***p < 0.001 compared with the vehicle control group.

The subject of experiment [2] is ERK1/2 phosphorylation. As to the kind of experiment: Ex vivo immunoblotting of phospho-ERK1/2 in ADP-stimulated PRP of treated rats. Further details: species or system rat. The note with it: for p-ERK1/2 / t-ERK (Fold to Control) / p-ERK1/2 / t-ERK (raw data): ex vivo, Figure 8E. How it is done: Male SD rats were randomly divided into 5 groups with 6 rats in each group. […] Sixty minutes after the last sample treatment, blood was drawn from the abdominal aorta of rats into the siliconized vacutainers containing 1:9 (v/v) 3.8% sodium citrate. The collected blood was centrifuged at 100 × g for 10 min at room temperature to obtain PRP. […] The platelet counts of PRP were adjusted to 4×10^8 cells/mL using PPP. PRP was incubated for 5 min at 37°C and then stimulated by ADP (5 μM). The maximum platelet aggregation rate was determined as mentioned above.
For in vitro platelet aggregation, aliquots of washed platelets were preincubated with vehicle or various concentrations of naringenin for 5 min and stimulated with ADP (10 μmol/L) under stirring at 37°C for 5 min. For ex vivo platelet aggregation, PRP was incubated at 37°C for 5 min and stimulated with ADP (5 μmol/L) under stirring at 37 °C. The platelet aggregation was terminated by adding ethylenediaminetetraacetic acid (EDTA; 10 mM). Total protein was prepared using RIPA lysis buffer and protein content was determined by bicinchoninic acid (BCA) protein assay kit. Equal amounts of platelet proteins (30 μg) were separated on 10% SDS polyacrylamide gel electrophoresis (SDS-PAGE) and then transferred to poly vinylidene difluoride (PVDF) membranes and subjected to western blot. Blots were blocked with TBS-Tween 20 containing 5% BSA and probed with primary antibodies diluted in blocking solution at 4°C overnight followed by incubation with the corresponding HRP secondary antibodies. The protein bands were visualized using enhanced chemiluminescence (ECL).
Blood was collected and PRP was obtained after the last treatment. Platelet aggregation was induced by ADP (5 μmol/L) (A). Data are expressed as means ± SD (n = 6). After ADP stimulation, platelet proteins were then extracted and analyzed by immunoblotting using PI3Kp110β antibody (B) and phospho-specific antibodies such as Akt^Ser473 (C), Akt^Thr308 (D) and ERK1/2^Thr202/Tyr204 (E). Total level of GAPDH was measured on each sample as a loading control. The blots shown are representative of three separate experiments. The relative protein expression levels were quantified by ImageJ 1.47v software. The level of relative protein expression obtained with vehicle control was taken as 1. R represents the level of relative protein expression in resting platelets. Data are expressed as means ± SD (n = 3). *p < 0.05, **p < 0.01, ***p < 0.001 compared with the vehicle control group (Con).
To further investigate the antiplatelet mechanisms of naringenin ex vivo, several signaling molecules such as PI3Kp110β, Akt and ERK were detected. After oral administration of naringenin (200, 400, and 800 mg/kg) to rats for 7 days, rat PRP was prepared and stimulated by ADP (5 μmol/L), and platelets were lysed to determine protein phosphorylation levels using western blot.
In general terms: In western blotting, separated proteins are transferred to a membrane and probed.

Experiment [3] has as its system carotid arterial thrombus. As to the kind of experiment: FeCl3-induced carotid arterial thrombus model in rats. The class given is in vivo, rat. The note with it: for Occlusion time: 10% FeCl3, single animals, no occlusion within 20 min recorded as 20 min. How it is done: To determine the effects of naringenin on thrombogenesis, a FeCl3-induced carotid arterial thrombus model was performed as reported previously with some modifications ([Eckly et al., 2011]). […] The rats were anaesthetized using 1% pentobarbital sodium salt and fixed supinely after the last administration. The left carotid artery was exposed and thrombosis was induced by applying a Whatman filter paper (5 mm × 1 mm) saturated with 10% (w/v) FeCl3 on the top of the left carotid artery for 5 min. […] Time to occlusion of the carotid artery was defined as a blood flow of 0 ml/min for 3 min. […] At the end of the experiment, the left carotid artery was dissected. A haematoxylin and eosin stain was performed on the artery.

For `O=C1C[C@@H](c2ccc(O)cc2)Oc2cc(O)cc(O)c21` [Naringenin], the IC50 in experiment [1] is roughly 684 µM; in experiment [1] (Rattus norvegicus, Platelet), 684 ± 80.8 µM. Also, the “Aggregation (%)” value in experiment [1] (100 μM) was 77.1% and 76.2% and 52.9% and 66.7% and 72.2% and 88.4%; in experiment [1] (200 μM), 79.6% and 67.1% and 56.9% and 52.0% and 48.0% and 62.4%; in experiment [1] (400 μM) it was 77.0% and 53.3% and 68.0% and 42.9% and 66.7% and 43.5%; in experiment [1] (800 μM), 45.5% and 30.8% and 28.0% and 42.4% and 22.5% and 36.0%. In addition, the “Aggregation % of control” value in experiment [1] (100 μM) is 95.0 % of control and 93.9 % of control and 65.2 % of control and 82.2 % of control and 88.9 % of control and 108.9 % of control; in experiment [1] (200 μM), 98.1 % of control and 82.7 % of control and 70.1 % of control and 64.1 % of control and 59.1 % of control and 76.9 % of control; in experiment [1] (400 μM), 94.9 % of control and 65.7 % of control and 83.8 % of control and 52.9 % of control and 82.2 % of control and 53.6 % of control; in experiment [1] (800 μM) it was 56.1 % of control and 37.9 % of control and 34.5 % of control and 52.2 % of control and 27.7 % of control and 44.4 % of control. Further, the “p-ERK1/2 / t-ERK (Fold to Control)” value is 0.4913 and 0.9007 and 0.8159 in experiment [2] (naringenin 200mg/kg); 0.4112 and 0.5367 and 0.7060 in experiment [2] (naringenin 800mg/kg). Moreover, the “p-ERK1/2 / t-ERK (raw data)” value in experiment [2] (naringenin 200mg/kg) is 0.4317 and 0.7915 and 0.7170; in experiment [2] (naringenin 800mg/kg), 0.3613 and 0.4716 and 0.6204. Moreover, the “phosphorylation of ERK in rat PRP ex vivo” value in experiment [2] (rats, oral 200, 400, and 800 mg/kg for 7 days, ADP 5 μmol/L) was “significantly suppressed”. In experiment [3] (naringenin pretreatment, 10% FeCl3), the “H&E-stained carotid artery: thrombus formation and vascular endothelial injury” value is “diminish thrombus formation and protect against vascular endothelial injury”. Also, the “Occlusion time” value in experiment [3] (oral 200 mg/kg for 7 days, 200 mg/kg) is 7.5 min and 11.3 min and 8.5 min and 8.0 min and 9.5 min and 10.3 min; in experiment [3] (oral 400 mg/kg for 7 days, 400 mg/kg) it was 11.0 min and 10.5 min and 13.0 min and 14.0 min and 15.0 min; in experiment [3] (oral 800 mg/kg for 7 days, 800 mg/kg), 13.3 min and 15.3 min and 20.0 min and 18.0 min. The “10% FeCl3-thrombus formation (time to vessel occlusion)” value in experiment [3] (oral 800 mg/kg for 7 days) is recorded as “markedly attenuated”; in experiment [3] (oral 200 and 400 mg/kg for 7 days), “less inhibition”.

The term IC50 denotes the concentration at which inhibition is half-maximal.
